# Data: patent EP0628539B1, “Polyepoxysuccinic acid derivatives and their use for the control of scale formation and corrosion in aqueous systems” (BetzDearborn Europe, Inc., priority 1993, dated 1994)
# Legend:
# [1] = Static calcium carbonate % inhibition evaluation (EDTA titration of filtrate calcium); conditions: 1106 ppm Ca as CaCO3, 1160 ppm CO3 as CaCO3, pH = 9.0, Temp. = 70°C, Duration = 17 hours
# Protocol: Table II summarizes the static calcium carbonate inhibition testing of the compounds of the present invention compared to several prior art calcium carbonate control agents. The tests were performed by adding the treatment solution (sample) to a carbonate stock solution of the described conditions.
# A calcium stock solution was then added and the mixture was incubated for 17 hours at 70°C. All treatments were adjusted to pH 9.0 prior to use and the treatment weights, expressed as the sodium salts, accounted for the presence of disodium tartrate by-product. After cooling, a measured portion of the mixture was filtered and the filtrate pH adjusted to less than 1 with hydrochloric acid. The filtrate was then diluted and pH adjusted to 12 with sodium hydroxide. A calcium indicator, murexide, was then added and the solution titrated with a known concentration of ethylenediaminetetraacetic acid (EDTA). From titrations for the treated, stock and control solutions, the percent inhibition was calculated as follows: % Inhibition =(mls EDTA(treated) - mls EDTA(control))/(mls EDTA(stock) - mls EDTA(control))x 100 [formula]
# [2] = Beaker Corrosion Test Apparatus (BCTA): coupon and probe weight loss, electrochemical corrosion rate; conditions: 25 ppm, base treatment 1 ppm HEDP, 10 ppm acrylic copolymer, 15 ppm molybdate (PESA: no HEDP), pH 8.4, 120°F, 40 hours
# Protocol: The corrosion inhibition activity of the present invention was evaluated with a Beaker Corrosion Test Apparatus (BCTA). […] The test solution volume is 1.9 liters.
# Electrochemical corrosion rate data (EC) are obtained during the test from potentiodynamic polarization resistance measurements. Additional corrosion data is obtained from the coupon and the electrochemical probe by standard weight loss measurement techniques. All tests were conducted under the following conditions unless otherwise noted:
# Under these conditions, the test water is supersaturated with respect to calcium carbonate. […] Therefore, all tests were conducted with a base treatment to inhibit the precipitation of calcium carbonate under the test conditions. The blank runs reported for all tests include the addition of the base treatment.
# In all tests, the blank corrosion rates are expressed in mils per year (mpy). The corrosion rates for the inhibitor compounds are expressed as a reduction in the corrosion rate relative to the blank calculated according to the following equation: % Corrosion Inhibition =((mpy Blank - mpy Treated))/(mpy Blank)x 100 [formula]
# All tests were conducted as parts per million of the inhibitor molecule as the sodium salt. Compound αHCA(12) was evaluated as ppm of the free acid.
# A sample of poly[epoxysuccinic acid]
Compound,Static Calcium Carbonate % Inhibition ([1]; 5 ppm Actives) [%],Static Calcium Carbonate % Inhibition ([1]; 10 ppm Actives) [%],"Percent Corrosion Inhibition, Coupon ([2]; coupon weight loss relative to blank (62.4 mpy)) [%]","Percent Corrosion Inhibition, EC (avg) ([2]; electrochemical corrosion rate relative to blank (47.1 mpy)) [%]","Percent Corrosion Inhibition, Probe ([2]; probe weight loss relative to blank (58.9 mpy)) [%]"
"O=C([O-])C(O)[C@H](NCCS(=O)(=O)[O-])C(=O)[O-].[Na+].[Na+].[Na+] (stereo partly drawn) [αHCA(9), aspartic acid, 3-hydroxy, N-[2-ethanesulfonic acid]-trisodium salt]",5.1,3.7,29.3,69.4,66.2
"CC(O)(P(=O)(O)O)P(=O)(O)O [HEDP, 1-hydroxyethylidene-1,1-diphosphonic acid]",73.1,71.3,–,–,–
"O=C(O)CCC(CC(=O)O)(C(=O)O)P(=O)(O)O (stereo not drawn) [PBSAM, 2-phosphonobutane - 1,2,4-tricarboxylic acid]",67.5,76.0,–,–,–
